The values that follow come from patent US20260374754A1, “N-((ISOQUINOLIN-6-YL)METHYL)-1H-PYRAZOLE-4-CARBOXAMIDE DERIVATIVES AS PLASMA KALLIKREIN INHIBITORS FOR THE TREATMENT OF HEREDITARY ANGIODEMA” (Takeda Pharmaceutical Company Limited, priority 2022, published 2026).

The target of assay [1] is human activated kallikrein enzyme (Homo sapiens, UniProt P03952). Description: Inhibition of human activated plasma kallikrein, fluorogenic PFR-AMC substrate, 500 pM enzyme format. Format: biochemical. To be noted: 500 pM activated kallikrein; 300 μM PFR-AMC; 30 min preincubation; 10 min room temperature; pH 7.5; read-out: Primary Dose Response Assay: Average EC50. The gist of the method: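 500 pM activated kallikrein preincubated 30 min at room temperature with inhibitors in pH 7.5 Tris/EDTA/NaCl buffer with PEG-400 and Triton X-100. Reaction started with 300 μM PFR-AMC, run 10 min at room temperature; AMC fluorescence read at ex 380/em 460 nm.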

In the next assay the target is T1, plasma kallikrein (Homo sapiens, UniProt P03952).
T1 construct: PFR-AMC substrate
Description: Neat Human Plasma Assay (Fluorogenic Peptide), contact pathway-activated (FXIIa) plasma. The class given is biochemical. To be noted: human citrated plasma 78% final; 10 nM human FXIIa; PFR-AMC substrate; 5 minutes; room temperature. Here is the method: To analyze inhibition of plasma kallikrein in an ex vivo setting, the potency of compounds was measure in contact pathway-activated plasma assays. In a fluorogenic peptide substrate assay, test compounds dissolved in DMSO were added to sodium citrate collected human or rat plasma in a 96-well microplate. Alternatively, citrated plasma was collected from rats administered the compounds orally or by IV. 10 nM of human FXIIa (Enzyme Research Laboratories) diluted in PKa buffer (20 mM Tris-HCl, pH 7.5, 150 mM NaCl, 1 mM EDTA, 0.1% PEG-8000, and 0.1% Triton X-100) was added to the plasma, followed by the […] of the profluorescent, synthetic plasma kallikrein substrate PFR-AMC (also diluted in PKa buffer). Final plasma concentration in the reaction was 78%. Fluorescence was immediately monitored by excitation/emission wavelengths of 360 nm/480 nm respectively over a period of 5 minutes in a microplate reader. The resulting linear increase in fluorescence emission (reflecting PKa proteolysis of PFR-AMC substrate) was fit to extract a proteolytic rate (fluorescent units over time), and this rate was subsequently plotted against compound inhibitor concentration. Resulting plots were fit to a standard 4-parameter IC50/IC90 equation to determine min/max values, IC50/90, and slope. All experimental steps were performed at room temperature.

T1 sequence (P03952 20-638): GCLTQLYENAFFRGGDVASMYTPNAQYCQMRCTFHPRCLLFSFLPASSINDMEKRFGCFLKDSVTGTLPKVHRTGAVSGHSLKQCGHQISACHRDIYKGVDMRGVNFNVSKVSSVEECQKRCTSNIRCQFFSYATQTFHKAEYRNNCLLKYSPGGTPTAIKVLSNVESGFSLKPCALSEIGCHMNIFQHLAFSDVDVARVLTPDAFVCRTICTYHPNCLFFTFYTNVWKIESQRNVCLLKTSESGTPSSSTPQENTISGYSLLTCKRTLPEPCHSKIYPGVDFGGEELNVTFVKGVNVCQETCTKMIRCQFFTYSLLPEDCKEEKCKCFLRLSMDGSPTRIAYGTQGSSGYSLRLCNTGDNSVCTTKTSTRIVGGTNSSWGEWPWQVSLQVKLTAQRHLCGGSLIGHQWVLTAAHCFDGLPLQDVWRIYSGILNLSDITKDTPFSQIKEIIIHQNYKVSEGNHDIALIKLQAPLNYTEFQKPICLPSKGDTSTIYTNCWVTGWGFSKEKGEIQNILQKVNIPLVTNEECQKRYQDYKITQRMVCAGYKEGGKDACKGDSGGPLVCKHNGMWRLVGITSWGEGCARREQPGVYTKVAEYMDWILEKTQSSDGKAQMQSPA
human activated kallikrein enzyme, sequence (P03952 391-638 limits assumed): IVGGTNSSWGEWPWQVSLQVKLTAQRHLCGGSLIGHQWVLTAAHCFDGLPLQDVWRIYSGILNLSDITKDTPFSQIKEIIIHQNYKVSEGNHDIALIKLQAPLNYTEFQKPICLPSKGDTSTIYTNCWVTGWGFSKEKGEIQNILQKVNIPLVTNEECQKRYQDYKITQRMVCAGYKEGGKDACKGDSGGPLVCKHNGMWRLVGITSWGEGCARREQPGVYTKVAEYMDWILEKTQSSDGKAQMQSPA
human activated kallikrein enzyme, sequence (P03952 20-390 partner limits assumed): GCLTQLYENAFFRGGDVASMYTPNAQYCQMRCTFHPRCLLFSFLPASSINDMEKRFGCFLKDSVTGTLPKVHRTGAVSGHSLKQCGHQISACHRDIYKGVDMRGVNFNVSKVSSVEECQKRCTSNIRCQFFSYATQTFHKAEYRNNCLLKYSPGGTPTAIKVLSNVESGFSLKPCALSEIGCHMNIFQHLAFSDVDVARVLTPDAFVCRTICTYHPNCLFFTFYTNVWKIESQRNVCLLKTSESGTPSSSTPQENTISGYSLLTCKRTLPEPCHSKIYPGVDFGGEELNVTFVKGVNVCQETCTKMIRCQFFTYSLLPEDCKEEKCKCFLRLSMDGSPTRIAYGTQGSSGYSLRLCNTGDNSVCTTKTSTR

Consider `Cc1cc2c(N)nccc2c(C)c1CNc1cc(OCc2cn3cc(C4CC4)cc(C4(O)COC4)c3n2)ncn1` [Example 250, 3-(2-(((6-(((1-amino-5,7-dimethylisoquinolin-6-yl)methyl)amino)pyrimidin-4-yl)oxy)methyl)-6-cyclopropylimidazo[1,2-a]pyridin-8-yl)oxetan-3-ol], for which, in assay [1], the EC50 was less than 1 nM. The IC90 against plasma kallikrein is no more than 1000 nM. In the case of `Cc1cc2c(N)nccc2c(C)c1CNc1cc(OCc2ccc3ncc(C4CC4)cc3c2)ncn1` [Example 386, 6-(((6-((3-cyclopropylquinolin-6-yl)methoxy)pyrimidin-4-yl)amino)methyl)-5,7-dimethylisoquinolin-1-amine], the EC50 in assay [1] fell in the range of 1 to 10 nM. Also, the IC90 against plasma kallikrein was greater than 5000 nM. As to `Cc1cc2c(N)nccc2c(C)c1CNc1cc(OCc2nc3ncc(C4CC4)cn3n2)ncn1` [Example 384, 6-(((6-((6-cyclopropyl-[1,2,4]triazolo[1,5-a]pyrimidin-2-yl)methoxy)pyrimidin-4-yl)amino)methyl)-5,7-dimethylisoquinolin-1-amine], the EC50 in assay [1] fell in the range of 1 to 10 nM. Also, the IC90 against plasma kallikrein was in the range of 1000 to 5000 nM.

With `Cc1cc2c(N)nccc2c(C)c1CNc1cc(OCc2cn3cc(C4CC4)ccc3n2)ncn1` [Example 305, 6-(((6-((6-cyclopropylimidazo[1,2-a]pyridin-2-yl)methoxy)pyrimidin-4-yl)amino)methyl)-5,7-dimethylisoquinolin-1-amine], in assay [1], the EC50 was less than 1 nM. Moreover, the IC90 against plasma kallikrein is greater than 5000 nM. For `Cc1cc2c(N)nccc2c(C)c1CNc1cc(OCc2cn3cc(C4CC4)cnc3n2)ncn1` [Example 262, 6-(((6-((6-cyclopropylimidazo[1,2-a]pyrimidin-2-yl)methoxy)pyrimidin-4-yl)amino)methyl)-5,7-dimethylisoquinolin-1-amine] the same measures were less than 1 nM and no more than 1000 nM. The matching figures for `Cc1cnc2ccc(COc3cnnc(NCc4c(C)cc5c(N)nccc5c4C)c3)cc2c1` [Example 416, 5,7-dimethyl-6-(((5-((3-methylquinolin-6-yl)methoxy)pyridazin-3-yl)amino)methyl)isoquinolin-1-amine]: less than 1 nM and 1000 to 5000 nM. For `Cc1cc2c(N)nccc2c(C)c1CNc1cc(OCc2cc3cc(C4CC4)cc(N4CCOC4=O)n3n2)ncn1` [Example 256, 3-(2-(((6-(((1-amino-5,7-dimethylisoquinolin-6-yl)methyl)amino)pyrimidin-4-yl)oxy)methyl)-5-cyclopropylpyrazolo[1,5-a]pyridin-7-yl)oxazolidin-2-one], the EC50 in assay [1] was less than 1 nM. Also, the IC90 on plasma kallikrein is no more than 1000 nM. Turning to `Cc1cc2c(N)nccc2c(C)c1CNc1cc2c(cn1)c(F)cn2Cc1cn2cc(C3CC3)ccc2n1` [Example 285, 6-(((1-((6-cyclopropylimidazo[1,2-a]pyridin-2-yl)methyl)-3-fluoro-1H-pyrrolo[3,2-c]pyridin-6-yl)amino)methyl)-5,7-dimethylisoquinolin-1-amine], the EC50 in assay [1] lay in the range of 1 to 10 nM. Also, the IC90 on plasma kallikrein was 1000 to 5000 nM.

`Cc1cc2c(N)nccc2c(C)c1CNc1nccc2nc(Cc3cn4cc(C5CC5)ccc4n3)[nH]c12` [Example 500, 6-(((2-((6-cyclopropylimidazo[1,2-a]pyridin-2-yl)methyl)-3H-imidazo[4,5-c]pyridin-4-yl)amino)methyl)-5,7-dimethylisoquinolin-1-amine]: in assay [1], the EC50 was less than 1 nM. Besides, at plasma kallikrein, the IC90 is greater than 5000 nM.

Take `Cc1cc2c(N)nccc2c(C)c1CNc1cc2c(cn1)ncn2Cc1cc2cc(C3CC3)cnc2s1` [Example 504, 6-(((1-((5-cyclopropylthieno[2,3-b]pyridin-2-yl)methyl)-1H-imidazo[4,5-c]pyridin-6-yl)amino)methyl)-5,7-dimethylisoquinolin-1-amine]: the EC50 in assay [1] was less than 1 nM. Also, the IC90 against plasma kallikrein was no more than 1000 nM. The matching figures for `Cc1cc2c(N)nccc2c(C)c1CNc1cc(OCc2cc3cc(C4CC4)cnc3s2)ncn1` [Example 281, 6-(((6-((5-cyclopropylthieno[2,3-b]pyridin-2-yl)methoxy)pyrimidin-4-yl)amino)methyl)-5,7-dimethylisoquinolin-1-amine]: 1 to 10 nM and greater than 5000 nM. For the molecule `Cc1ccc2cc(COc3cc(NCc4c(C)cc5c(N)nccc5c4C)ncn3)ccc2n1` [Example 371, 5,7-dimethyl-6-(((6-((2-methylquinolin-6-yl)methoxy)pyrimidin-4-yl)amino)methyl)isoquinolin-1-amine], in assay [1], the half-maximal effective concentration (EC50) was 1 to 10 nM. For the same molecule, the IC90 against plasma kallikrein was 1000 to 5000 nM. `Cc1cc2c(N)nccc2c(C)c1CNc1cc(OCc2cc(C(N)=O)c3ncc(Cl)cc3c2)ncn1` [Example 401, 6-(((6-(((1-amino-5,7-dimethylisoquinolin-6-yl)methyl)amino)pyrimidin-4-yl)oxy)methyl)-3-chloroquinoline-8-carboxamide]: in assay [1], the EC50 was in the range of 1 to 10 nM. In addition, the IC90 against plasma kallikrein lay within 1000 to 5000 nM.

For the molecule `Cc1cc2c(N)nccc2c(C)c1CNC(=O)c1ccnc(Cc2cn3cc(C4CC4)ccc3n2)c1` [Example 514, N-((1-amino-5,7-dimethylisoquinolin-6-yl)methyl)-2-((6-cyclopropylimidazo[1,2-a]pyridin-2-yl)methyl)isonicotinamide], the EC50 in assay [1] was less than 1 nM. This molecule yielded an IC90 against plasma kallikrein of no more than 1000 nM. As for `Cc1cc2c(N)nccc2c(C)c1CNc1cc(OCc2cc3cc(C4CC4)cc(CC(C)(C)C(N)=O)n3n2)ncn1` [Example 509, 3-(2-(((6-(((1-amino-5,7-dimethylisoquinolin-6-yl)methyl)amino)pyrimidin-4-yl)oxy)methyl)-5-cyclopropylpyrazolo[1,5-a]pyridin-7-yl)-2,2-dimethylpropanamide], the EC50 in assay [1] is less than 1 nM. The molecule also registered an IC90 against plasma kallikrein of 1000 to 5000 nM. The matching figures for `Cc1cc2c(N)nccc2c(C)c1CNc1cc(NCc2ccc(Cn3cccn3)cc2)c(C(F)(F)F)nn1` [Example 451, N^5-(4-((1H-pyrazol-1-yl)methyl)benzyl)-N^3-((1-amino-5,7-dimethylisoquinolin-6-yl)methyl)-6-(trifluoromethyl)pyridazine-3,5-diamine]: less than 1 nM and 1000 to 5000 nM. The matching figures for `Cc1cc2c(N)nccc2c(C)c1CNc1cc(NCc2cc3cc(C4CC4)cnc3s2)ncn1` [Example 243, N4-((1-amino-5,7-dimethylisoquinolin-6-yl)methyl)-N6-((5-cyclopropylthieno[2,3-b]pyridin-2-yl)methyl)pyrimidine-4,6-diamine]: less than 1 nM and no more than 1000 nM. The matching figures for `Cc1cc2c(N)nccc2c(C)c1CNc1cc(NCc2ccc(Cn3ccccc3=O)cc2)cnn1` [Example 236, 1-(4-(((6-(((1-amino-5,7-dimethylisoquinolin-6-yl)methyl)amino)pyridazin-4-yl)amino)methyl)benzyl)pyridin-2(1H)-one]: less than 1 nM and no more than 1000 nM. As for `COCc1nn(Cc2cnc(N3CCCC3)nc2)cc1C(=O)NCc1c(C)cc2c(N)nccc2c1C` [Example 162, N-((1-amino-5,7-dimethylisoquinolin-6-yl)methyl)-3-(methoxymethyl)-1-((2-(pyrrolidin-1-y1)pyrimidin-5-yl)methyl)-1H-pyrazole-4-carboxamide], the EC50 in assay [1] is less than 1 nM. For `Cc1cc2c(N)nccc2c(C)c1CNC(=O)c1cnn(Cc2ccc(Cc3nccs3)cc2)c1` [Example 166, N-((1-amino-5,7-dimethylisoquinolin-6-yl)methyl)-1-(4-(thiazol-2-ylmethyl)benzyl)-1H-pyrazole-4-carboxamide], the EC50 in assay [1] was less than 1 nM. For `CCOC(=O)c1nc(NCc2c(C)cc3c(N)nccc3c2C)cc(OCc2cn3cc(C4CC4)cnc3n2)n1` [Example 489, ethyl 4-(((1-amino-5,7-dimethylisoquinolin-6-yl)methyl)amino)-6-((6-cyclopropylimidazo[1,2-a]pyrimidin-2-yl)methoxy)pyrimidine-2-carboxylate], in assay [1], the concentration giving a half-maximal response (EC50) was less than 1 nM. Same read-out and setting: for `Cc1cc2c(N)nccc2c(C)c1CNC(=O)c1cnn(Cc2nc3ccccc3o2)c1` [Example 85, N-((1-amino-5,7-dimethylisoquinolin-6-yl)methyl)-1-(benzo[d]oxazol-2-ylmethyl)-1H-pyrazole-4-carboxamide] the value was 10 to 100 nM; for `Cc1cc(CNc2cc(NCc3c(C)cc4c(N)nccc4c3C)ncn2)cc(C)c1CC(=O)N(C)C` [Compound 360], less than 1 nM; for `Cc1cc2c(N)nccc2c(C)c1CNC(=O)c1cnn(Cc2ccc(CC(=O)N3CC4CC(C4)C3)cc2)c1` [Example 215, 1-(4-(2-(3-azabicyclo[3.1.1]heptan-3-yl)-2-oxoethyl)benzyl)-N-((1-amino-5,7-dimethylisoquinolin-6-yl)methyl)-1H-pyrazole-4-carboxamide], 1 to 10 nM.

The term EC50 denotes the concentration giving half of the maximal effect. A word on the IC90: it is the point of the concentration-response curve where the effect stands at 90%. Read a low IC90 as greater potency.
